Patent US10736898B2, “Positive allosteric modulators of the muscarinic acetylcholine receptor M4” (Vanderbilt University, priority 2017, dated 2020)

Biological target: T1, Human M4 (Homo sapiens, UniProt P08173)
T1 construct: expressed in transfected cells
T1 sequence (P08173 1-479): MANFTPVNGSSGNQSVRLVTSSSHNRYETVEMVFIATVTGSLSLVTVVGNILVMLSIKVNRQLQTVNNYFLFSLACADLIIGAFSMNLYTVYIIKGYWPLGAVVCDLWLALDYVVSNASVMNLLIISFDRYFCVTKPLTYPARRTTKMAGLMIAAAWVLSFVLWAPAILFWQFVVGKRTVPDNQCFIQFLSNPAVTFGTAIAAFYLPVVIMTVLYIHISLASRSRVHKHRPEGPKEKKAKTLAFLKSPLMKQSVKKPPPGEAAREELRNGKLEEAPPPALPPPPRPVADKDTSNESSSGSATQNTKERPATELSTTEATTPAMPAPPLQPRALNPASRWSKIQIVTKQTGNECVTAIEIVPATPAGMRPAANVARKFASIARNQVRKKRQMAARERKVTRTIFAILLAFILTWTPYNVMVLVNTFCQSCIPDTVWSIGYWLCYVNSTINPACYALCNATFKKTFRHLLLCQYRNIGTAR
Experiment: mAChR M4 cell-based functional assay (calcium flux, potentiation of EC20 acetylcholine response)
Settings: for Emax / Emax at 30 µM: % ACh maximum at 30 μM, human M4; for EC50: CHO-K1 cells with human M4 and Gqi5, increase in EC20 acetylcholine response

| Compound | Emax | EC50 | Emax at 30 µM |
| --- | --- | --- | --- |
| 5-chloro-2,4-dimethyl-8-pyrrolidin-1-yl-pyrido[4,5]thieno[1,2-b]pyrimidine [Compound 45] | 60.9% | 693 nM | – |
| 5-chloro-N-[(3-fluoro-4-methoxy-phenyl)methyl]-2,4-dimethyl-pyrido[4,5]thieno[1,2-b]pyrimidin-8-amine [Compound 42] | 60.5% | 723 nM | – |
| COc1ccc(CNc2ncnc3c2sc2nc(C)nc(C)c23)cc1F [Compound 3, N-(3-fluoro-4-methoxybenzyl)-7,9-dimethylthieno[2,3-d:4,5-d′]dipyrimidin-4-amine] | – | 1160 nM | 64.8% |
| Cc1nc(C)c2c(n1)sc1c(NC3CCCC3)ncnc12 [Compound 4, N-cyclopentyl-7,9-dimethylthieno[2,3-d:4,5-d′]dipyrimidin-4-amine] | – | 557 nM | 55.5% |
| [2H]C([2H])(Nc1ncnc2c1sc1nc(C)nc(C)c12)c1ccc(C(C)(C)O)cc1 [Compound 5, 2-(4-(((7,9-dimethylthieno[2,3-d:4,5-d′]dipyrimidin-4-yl)amino)methyl-d2)phenyl)propan-2-ol] | – | 1370 nM | 79.3% |
| Cc1nc(C)c2c(n1)sc1c(NCc3ccc(C4(O)CCC4)cc3)ncnc12 [Compound 6, 1-(4-(((7,9-dimethylthieno[2,3-d:4,5-d′]dipyrimidin-4-yl)amino)methyl)phenyl)cyclobutan-1-ol] | – | 2020 nM | 81.3% |
| Cc1nc(C)c2c(n1)sc1c(NCc3ccc(C(C)(O)C4CC4)cc3)ncnc12 (centres unmarked) [Compound 7, 1-cyclopropyl-1-(4-(((7,9-dimethylthieno[2,3-d:4,5-d′]dipyrimidin-4-yl)amino)methyl)phenyl)ethan-1-ol] | – | 2090 nM | 71.2% |
| Cc1nc(C)c2c(n1)sc1c(N3CCOCC3)ncnc12 [Compound 9, 4-(7,9-dimethylthieno[2,3-d:4,5-d′]dipyrimidin-4-yl)morpholine] | – | 5570 nM | 39.1% |
| Cc1nc(C)c2c(n1)sc1c(N3CC4(COC4)C3)ncnc12 [Compound 10, 6-(7,9-dimethylthieno[2,3-d:4,5-d′]dipyrimidin-4-yl)-2-oxa-6-azaspiro[3.3]heptane] | – | 1580 nM | 76% |
| Cc1nc(C)c2c(n1)sc1c(NCc3ccc(C(C)(C)O)cc3)nccc12 [Compound 14, 2-(4-(((2,4-dimethylpyrido[4′,3′:4,5]thieno[2,3-d]pyrimidin-8-yl)amino)methyl)phenyl)propan-2-ol] | – | – | 80.5% |
| Cc1nc(C)c2c(n1)sc1c(N3CCC3)ncnc12 [Compound 16, 4-(azetidin-1-yl)-7,9-dimethylthieno[2,3-d:4,5-d′]dipyrimidine] | – | 1440 nM | 59.9% |
| Cc1nc(C)c2c(n1)sc1c(N3CCC(F)(F)C3)ncnc12 [Compound 18, 4-(3,3-difluoropyrrolidin-1-yl)-7,9-dimethylthieno[2,3-d:4,5-d′]dipyrimidine] | – | 635 nM | 76.9% |
| Cc1nc(C)c2c(n1)sc1c(N3CC[C@H](F)C3)ncnc12 [Compound 19, (S)-4-(3-fluoropyrrolidin-1-yl)-7,9-dimethylthieno[2,3-d:4,5-d′]dipyrimidine] | – | 1060 nM | 62.4% |
| Cc1nc(C)c2c(n1)sc1c(N3CC[C@@H](F)C3)ncnc12 [Compound 20, (R)-4-(3-fluoropyrrolidin-1-yl)-7,9-dimethylthieno[2,3-d:4,5-d′]dipyrimidine] | – | 791 nM | 71.5% |
| Cc1nc(C)c2c(n1)sc1c(N3CCC(F)(F)CC3)ncnc12 [Compound 21, 4-(4,4-difluoropiperidin-1-yl)-7,9-dimethylthieno[2,3-d:4,5-d′]dipyrimidine] | – | 1410 nM | 52.6% |
| Cc1nc(C)c2c(n1)sc1c(NCc3ccc(C(C)(C)O)cc3F)nccc12 [Compound 22, 2-[4-[[(2,4-dimethylpyrido[4,5]thieno[1,2-b]pyrimidin-8-yl)amino]methyl]-3-fluoro-phenyl]propan-2-ol] | – | 840 nM | 88.7% |
| CCN(CC)C(=O)c1ccc(CNc2nccc3c2sc2nc(C)nc(C)c23)cc1 [Compound 23, 4-[[(2,4-dimethylpyrido[4,5]thieno[1,2-b]pyrimidin-8-yl)amino]methyl]-N,N-diethyl-benzamide] | – | 4240 nM | 78.8% |
| CCN(CC)c1nccc2c1sc1nc(C)nc(C)c12 [Compound 24, N,N-diethyl-2,4-dimethyl-pyrido[4,5]thieno[1,2-b]pyrimidin-8-amine] | – | > 10000 nM | 37.7% |
| Cc1nc(C)c2c(n1)sc1c(NC3CCC3)nccc12 [Compound 26, N-cyclobutyl-2,4-dimethyl-pyrido[4,5]thieno[1,2-b]pyrimidin-8-amine] | – | 300 nM | 94.8% |
| Cc1nc(C2CC2)nc2sc3c(NCc4ccc(C(C)(C)O)c(F)c4)nccc3c12 [Compound 27, 2-[4-[[(2-cyclopropyl-4-methyl-pyrido[4,5]thieno[1,2-d]pyrimidin-8-yl)amino]methyl]-2-fluoro-phenyl]propan-2-ol] | – | 2270 nM | 86.4% |
| Cc1nc(C2CC2)nc2sc3c(NCc4ccc(C(C)(C)O)cc4)nccc3c12 [Compound 28, 2-[4-[[(2-cyclopropyl-4-methyl-pyrido[4,5]thieno[1,2-d]pyrimidin-8-yl)amino]methyl]phenyl]propan-2-ol] | – | 1390 nM | 97% |
| Cc1nc(C2CC2)nc2sc3c(NCc4ccc(F)c(F)c4)nccc3c12 [Compound 29, 2-cyclopropyl-N-[(3,4-difluorophenyl)methyl]-4-methyl-pyrido[4,5]thieno[1,2-d]pyrimidin-8-amine] | – | 6690 nM | 62.4% |
| Cc1nc(C2CC2)nc2sc3c(N4CCOCC4)nccc3c12 [Compound 30, 4-(2-cyclopropyl-4-methyl-pyrido[4,5]thieno[1,2-d]pyrimidin-8-yl)morpholine] | – | 449 nM | 74.2% |
| CCc1nc(C)c2c(n1)sc1c(NCc3ccc(OC)c(F)c3)nccc12 [Compound 33, 2-ethyl-N-[(3-fluoro-4-methoxy-phenyl)methyl]-4-methyl-pyrido[4,5]thieno[1,2-b]pyrimidin-8-amine] | – | 1330 nM | 87.4% |
| CCc1nc(C)c2c(n1)sc1c(NCc3ccc(C(C)(C)O)cc3)nccc12 [Compound 34, 2-[4-[[(2-ethyl-4-methyl-pyrido[4,5]thieno[1,2-b]pyrimidin-8-yl)amino]methyl]phenyl]propan-2-ol] | – | 601 nM | 88.1% |

The remaining compounds from weak to strong by EC50, led by results:

| Emax | EC50 | Emax at 30 µM | Compound |
| --- | --- | --- | --- |
| – | 288 nM | 51.7% | Cc1nc(C)c2c(n1)sc1c(N3CCCC3)ncnc12 [Compound 2, 7,9-dimethyl-4-(pyrrolidin-1-yl)thieno[2,3-d:4,5-d′]dipyrimidine] |
| – | 263 nM | 96.9% | CCc1nc(C)c2c(n1)sc1c(N3CCC(F)(F)C3)nccc12 [Compound 35, 8-(3,3-difluoropyrrolidin-1-yl)-2-ethyl-4-methyl-pyrido[4,5]thieno[1,2-b]pyrimidine] |
| – | 237 nM | 85.8% | Cc1nc(C)c2c(n1)sc1c(NCc3ccc(C(C)(C)O)c(F)c3)nccc12 [Compound 31, 2-[4-[[(2,4-dimethylpyrido[4,5]thieno[1,2-b]pyrimidin-8-yl)amino]methyl]-2-fluoro-phenyl]propan-2-ol] |
| – | 185 nM | 42.9% | Cc1nc(C)c2c(n1)sc1c(N3CC4(C3)CC(F)(F)C4)ncnc12 [Compound 17, 4-(6,6-difluoro-2-azaspiro[3.3]heptan-2-yl)-7,9-dimethylthieno[2,3-d:4,5-d′]dipyrimidine] |
| – | 169 nM | 84.4% | COc1ccc(CNc2nccc3c2sc2nc(C)nc(C)c23)cc1F [Compound 13, N-(3-fluoro-4-methoxybenzyl)-2,4-dimethylpyrido[4′,3′:4,5]thieno[2,3-d]pyrimidin-8-amine] |
| – | 156 nM | 75.5% | Cc1nc(C)c2c(n1)sc1c(N3CC4CC4C3)ncnc12 (centres unmarked) [Compound 8, 4-(3-azabicyclo[3.1.0]hexan-3-yl)-7,9-dimethylthieno[2,3-d:4,5-d′]dipyrimidine] |
| – | 134 nM | 73.3% | Cc1nc(C)c2c(n1)sc1c(NC3CCCC3)nccc12 [Compound 15, N-cyclopentyl-2,4-dimethylpyrido[4′,3′:4,5]thieno[2,3-d]pyrimidin-8-amine] |
| – | 129 nM | 103% | Cc1nc(C2CC2)nc2sc3c(NC4CC4)nccc3c12 [Compound 32, N,2-dicyclopropyl-4-methyl-pyrido[4,5]thieno[1,2-d]pyrimidin-8-amine] |
| – | 73 nM | 77% | Cc1nc(C)c2c(n1)sc1c(N3CCCC3)nccc12 [Compound 11, 2,4-Dimethyl-8-(pyrrolidin-1-yl)pyrido[4′,3′:4,5]thieno[2,3-d]pyrimidine] |
| – | 73 nM | 57.9% | Cc1nc(C)c2c(n1)sc1c(N3CCCCC3)nccc12 [Compound 12, 2,4-dimethyl-8-(1-piperidyl)pyrido[4′,3′:4,5]thieno[2,3-d]pyrimidine] |
| – | 42 nM | 94.6% | Cc1nc(C)c2c(n1)sc1c(N3CCC(F)(F)C3)nccc12 [Compound 25, 8-(3,3-difluoropyrrolidin-1-yl)-2,4-dimethyl-pyrido[4,5]thieno[1,2-b]pyrimidine] |
